Here are results for 21 compounds from patent US9604982B2, “P2X7 modulators” (Janssen Pharmaceutica NV, priority 2013, dated 2017).

Holding throughout (type): cell-based
Test [1] has as its target T1, P2X7 (Homo sapiens (Human), UniProt Q99572). In words: P2X7 antagonism in human peripheral blood mononuclear cells (PBMCs), IL-1β release after LPS + Bz-ATP (ELISA). As to conditions: 0.5 mM Bz-ATP; for remaining activity at 10 µM: read-out: PBMC 10 μM (% control); for PBMC 10 μM (% control): Table 3 (additional runs). The method, then: Human blood was collected using a blood donor program. […] Cells were incubated for an additional 1.5 hours. […] Data are analyzed and graphed on Graphpad Prism 5. […] The IC50 for each compound is then uploaded into 3DX.
In general terms: In an ELISA, binding on a coated surface is turned into a signal by an enzyme label.

In test [2] the target is recombinant rat P2X7 channel (Rattus norvegicus (Rat), UniProt Q64663). In words: Ca2+ flux (FLIPR) in 1321N1 cells expressing recombinant rat P2X7 channel. As to conditions: Table 3 (additional runs); 250 μM BzATP. As to the method:
(§1) P2X7 Antagonism in Recombinant Human P2X7 Cells or Recombinant Rat P2X7 Cells: (a) Ca^2+ Flux and (b) Radioligand Binding
(§2) (a) Ca^2+ flux: 1321N1 cells expressing the recombinant human or rat P2X7 channel was cultured in HyQ DME/(HyClone/Dulbecco's Modified Eagle Medium) high glucose supplemented with 10% Fetal Bovine Serum (FBS) and appropriate selection marker. Cells were seeded at a density of 25000 cells/well (96-well clear bottom black walled plates) in 100 μl volume/well. On the day of the experiment, cell plates were washed with assay buffer, containing (in mM): 130 NaCl, 2 KCl, 1 CaCl2, 1 MgCl2, 10 HEPES, 5 glucose; pH 7.40 and 300 mOs. After the wash, cells were loaded with the Calcium-4 dye (Molecular Device) and incubated in the dark for 60 minutes. Test compounds were prepared at 250× the test concentration in neat DMSO. Intermediate 96-well compound plates were prepared by transferring 1.2 μL of the compound into 300 μL of assay buffer. A further 3× dilution occurred when transferring 50 μL/well of the compound plate to 100 μL/well in the cell plate. Cells were incubated with test compounds and dye for 30 minutes. […] The fluorescence change was measured 180 seconds after adding the agonist.
Background: A change in cytosolic calcium serves as a functional read-out for many receptors and channels.

For test [3], the target named is T1, P2X7. In words: Ca2+ flux (FLIPR) in 1321N1 cells expressing recombinant human P2X7 channel. As to conditions: Table 3 (additional runs); 250 μM BzATP. The method, then:
as §1, §2

[4] abbreviates: P2X7, Table 3 (additional runs), 10 μM compound.

Read-outs that look alike come from different tables or passages of the source.

T1 sequence (Q99572 whole entry): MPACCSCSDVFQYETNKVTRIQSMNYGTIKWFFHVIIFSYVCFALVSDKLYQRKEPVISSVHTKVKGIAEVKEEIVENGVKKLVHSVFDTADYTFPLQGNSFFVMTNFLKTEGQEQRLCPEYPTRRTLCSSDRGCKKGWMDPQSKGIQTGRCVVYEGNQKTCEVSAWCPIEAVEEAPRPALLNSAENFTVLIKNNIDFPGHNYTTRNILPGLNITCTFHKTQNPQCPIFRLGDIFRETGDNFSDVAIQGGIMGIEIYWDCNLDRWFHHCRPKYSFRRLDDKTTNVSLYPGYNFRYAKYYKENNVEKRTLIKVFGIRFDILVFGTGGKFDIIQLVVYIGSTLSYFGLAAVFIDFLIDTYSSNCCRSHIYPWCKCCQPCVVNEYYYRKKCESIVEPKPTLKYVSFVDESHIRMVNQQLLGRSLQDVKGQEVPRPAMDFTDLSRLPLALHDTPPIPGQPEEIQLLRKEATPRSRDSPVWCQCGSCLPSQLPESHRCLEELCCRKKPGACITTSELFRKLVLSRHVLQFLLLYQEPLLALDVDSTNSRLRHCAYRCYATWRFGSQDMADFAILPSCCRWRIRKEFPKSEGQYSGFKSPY
recombinant rat P2X7 channel, sequence (Q64663 whole entry): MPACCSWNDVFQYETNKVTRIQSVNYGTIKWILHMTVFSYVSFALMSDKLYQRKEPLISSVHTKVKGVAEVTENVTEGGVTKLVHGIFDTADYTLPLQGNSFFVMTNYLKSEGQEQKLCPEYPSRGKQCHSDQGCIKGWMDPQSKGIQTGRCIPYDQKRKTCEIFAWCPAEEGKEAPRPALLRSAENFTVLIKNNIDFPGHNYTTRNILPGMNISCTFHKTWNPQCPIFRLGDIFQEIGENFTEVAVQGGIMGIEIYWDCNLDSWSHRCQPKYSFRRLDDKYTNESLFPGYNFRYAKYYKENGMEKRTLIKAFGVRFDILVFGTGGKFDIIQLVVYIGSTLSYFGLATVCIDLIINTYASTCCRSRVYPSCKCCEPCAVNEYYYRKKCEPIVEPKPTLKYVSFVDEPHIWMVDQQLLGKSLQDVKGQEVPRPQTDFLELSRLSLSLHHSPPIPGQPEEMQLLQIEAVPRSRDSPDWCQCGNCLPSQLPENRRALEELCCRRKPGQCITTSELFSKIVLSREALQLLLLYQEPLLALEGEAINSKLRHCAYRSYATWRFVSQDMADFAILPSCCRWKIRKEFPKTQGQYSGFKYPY

As to `C[C@@H]1c2ncnc(-c3ccn[nH]3)c2CCN1C(=O)c1cccc(C(F)(F)F)c1Cl` (single isomer, unassigned) [Example 113, (R*)-(2-chloro-3-(trifluoromethyl)phenyl)(8-methyl-4-(1H-pyrazol-5-yl)-5,6-dihydropyrido[3,4-d]pyrimidin-7(8H)-yl)methanone], the remaining activity at 10 µM on P2X7 [1] (P2X7, Table 2, 10 μM compound) was -2.1%. For the same compound, at P2X7 [1] (10 μM compound), the “PBMC 10 μM (% control)” value is recorded as −2.1 % control.
`C[C@H]1c2ncnc(-c3ccn[nH]3)c2CCN1C(=O)c1cccc(C(F)(F)F)c1Cl` (single isomer, unassigned) [Example 114, (S*)-(2-chloro-3-(trifluoromethyl)phenyl)(8-methyl-4-(1H-pyrazol-5-yl)-5,6-dihydropyrido[3,4-d]pyrimidin-7(8H)-yl)methanone]: the remaining activity at 10 µM at P2X7 [1] (P2X7, Table 2, 10 μM compound) is -0.5%. Moreover, on P2X7 [1] (10 μM compound), the “PBMC 10 μM (% control)” value is −0.5 % control.
Turning to `C[C@@H]1c2ncnc(-c3ccn[nH]3)c2CCN1C(=O)c1ccc(F)c(C(F)(F)F)c1Cl` (single isomer, unassigned) [Example 116, (R*)-(2-chloro-4-fluoro-3-(trifluoromethyl)phenyl)(8-methyl-4-(1H-pyrazol-5-yl)-5,6-dihydropyrido[3,4-d]pyrimidin-7(8H)-yl)methanone], the remaining activity at 10 µM at P2X7 [1] (P2X7, Table 2, 10 μM compound) was -4.4%. In addition, the “PBMC 10 μM (% control)” value on P2X7 [1] (10 μM compound) is listed as −4.4 % control.
The matching figures for `C[C@H]1c2ncnc(-c3ccn[nH]3)c2CCN1C(=O)c1ccc(F)c(C(F)(F)F)c1Cl` (single isomer, unassigned) [Example 117, (S*)-(2-chloro-4-fluoro-3-(trifluoromethyl)phenyl)(8-methyl-4-(1H-pyrazol-5-yl)-5,6-dihydropyrido[3,4-d]pyrimidin-7(8H)-yl)methanone]: 0.1% and 0.1 % control.
On to `C[C@@H]1c2ncnc(-c3ccn[nH]3)c2CCN1C(=O)c1ccc(F)c(Cl)c1Cl` (single isomer, unassigned) [Example 119, (R*)-(2,3-dichloro-4-fluorophenyl)(8-methyl-4-(1H-pyrazol-5-yl)-5,6-dihydropyrido[3,4-d]pyrimidin-7(8H)-yl)methanone], for which the remaining activity at 10 µM on P2X7 [1] (P2X7, Table 2, 10 μM compound) is -1.5%. Moreover, the “PBMC 10 μM (% control)” value on P2X7 [1] (10 μM compound) is listed as −1.5 % control.
Take `C[C@H]1c2ncnc(-c3ccn[nH]3)c2CCN1C(=O)c1ccc(F)c(Cl)c1Cl` (single isomer, unassigned) [Example 120, (S*)-(2,3-dichloro-4-fluorophenyl)(8-methyl-4-(1H-pyrazol-5-yl)-5,6-dihydropyrido[3,4-d]pyrimidin-7(8H)-yl)methanone]: the remaining activity at 10 µM at P2X7 [1] (P2X7, Table 2, 10 μM compound) came to 2.9%. For the same compound, the “PBMC 10 μM (% control)” value at P2X7 [1] (10 μM compound) is 2.9 % control.
Consider `C[C@@H]1c2ncnc(-c3ccn[nH]3)c2CCN1C(=O)c1ccc(Cl)c(F)c1Cl` (single isomer, unassigned) [Example 122, (R*)-(2,4-dichloro-3-fluorophenyl)(8-methyl-4-(1H-pyrazol-5-yl)-5,6-dihydropyrido[3,4-d]pyrimidin-7(8H)-yl)methanone], for which the remaining activity at 10 µM at P2X7 [1] (P2X7, Table 2, 10 μM compound) came to 4.1%. Also, at P2X7 [1] (10 μM compound), the “PBMC 10 μM (% control)” value is listed as 4.1 % control.
Consider `C[C@H]1c2ncnc(-c3ccn[nH]3)c2CCN1C(=O)c1ccc(Cl)c(F)c1Cl` (single isomer, unassigned) [Example 123, (S*)-(2,4-dichloro-3-fluorophenyl)(8-methyl-4-(1H-pyrazol-5-yl)-5,6-dihydropyrido[3,4-d]pyrimidin-7(8H)-yl)methanone], for which, at P2X7 [1] (P2X7, Table 2, 10 μM compound), the remaining activity at 10 µM came out at 13.3%.
On to `Cc1nc2c(c(-c3ccn(CCF)n3)n1)C[C@@H](C)N(C(=O)c1cccc(C(F)(F)F)c1Cl)C2` (single isomer, unassigned) [Example 124, (R*)-(2-chloro-3-(trifluoromethyl)phenyl)(4-(1-(2-fluoroethyl)-1H-pyrazol-3-yl)-2,6-dimethyl-5,6-dihydropyrido[3,4-d]pyrimidin-7(8H)-yl)methanone], for which, on P2X7 [1] (P2X7, Table 2, 10 μM compound), the remaining activity at 10 µM came out at 18.6%.
The same measure, in the same setting: next, `COCCn1ccc(-c2nc(C)nc3c2C[C@H](C)N(C(=O)c2cccc(C(F)(F)F)c2Cl)C3)n1` (single isomer, unassigned) [Example 127, (S*)-(2-chloro-3-(trifluoromethyl)phenyl)(4-(1-(2-methoxyethyl)-1H-pyrazol-3-yl)-2,6-dimethyl-5,6-dihydropyrido[3,4-d]pyrimidin-7(8H)-yl)methanone]: 38.2%.
As for `COCCn1ccc(-c2nc(C)nc3c2C[C@@H](C)N(C(=O)c2cccc(C(F)(F)F)c2Cl)C3)n1` (single isomer, unassigned) [Example 128, (R*)-(2-chloro-3-(trifluoromethyl)phenyl)(4-(1-(2-methoxyethyl)-1H-pyrazol-3-yl)-2,6-dimethyl-5,6-dihydropyrido[3,4-d]pyrimidin-7(8H)-yl)methanone], at P2X7 [1] (P2X7, Table 2, 10 μM compound), the remaining activity at 10 µM came out at 7.3%. In addition, the “PBMC 10 μM (% control)” value at P2X7 [1] (10 μM compound) is 7.3 % control.
One may read the IC50 as the point on the concentration scale where inhibition reaches its midpoint. In the case of `Cc1nc2c(c(-c3ccn[nH]3)n1)C[C@@H](C)N(C(=O)c1cccc(OC(F)(F)F)c1)C2` (single isomer, unassigned) [Example 141, (R*)-(2,6-dimethyl-4-(1H-pyrazol-5-yl)-5,6-dihydropyrido[3,4-d]pyrimidin-7(8H)-yl)(3-(trifluoromethoxy)phenyl)methanone], the figures for the IC50 (in test [2]; at P2X7 [3]) were 12.4 µM and 9 µM, respectively.
Turning to `Cc1nc2c(c(-c3ccn[nH]3)n1)C[C@H](C)N(C(=O)c1cccc(OC(F)(F)F)c1)C2` (single isomer, unassigned) [Example 142, (S*)-(2,6-dimethyl-4-(1H-pyrazol-5-yl)-5,6-dihydropyrido[3,4-d]pyrimidin-7(8H)-yl)(3-(trifluoromethoxy)phenyl)methanone], the remaining activity at 10 µM at P2X7 [1] (setting [4]) is 73.9%.
As to `Cc1nc2c(c(-c3ccn[nH]3)n1)C[C@@H](C)N(C(=O)c1cccc(F)c1Cl)C2` (single isomer, unassigned) [Example 144, (R*)-(2-chloro-3-fluorophenyl)(2,6-dimethyl-4-(1H-pyrazol-5-yl)-5,6-dihydropyrido[3,4-d]pyrimidin-7(8H)-yl)methanone], the IC50 in test [2] is 0.2 µM.
For the compound `Cc1nc2c(c(-c3ccn[nH]3)n1)C[C@H](C)N(C(=O)c1cccc(F)c1Cl)C2` (single isomer, unassigned) [Example 145, (S*)-(2-chloro-3-fluorophenyl)(2,6-dimethyl-4-(1H-pyrazol-5-yl)-5,6-dihydropyrido[3,4-d]pyrimidin-7(8H)-yl)methanone], the remaining activity at 10 µM on P2X7 [1] (setting [4]) was 67.4%.
Regarding `Cc1nc2c(c(-c3ccn[nH]3)n1)C[C@@H](C)N(C(=O)c1ccc(Cl)c(F)c1Cl)C2` [Example 71, (R)-(2,4-dichloro-3-fluorophenyl)(2,6-dimethyl-4-(1H-pyrazol-5-yl)-5,6-dihydropyrido[3,4-d]pyrimidin-7(8H)-yl)methanone], the remaining activity at 10 µM at P2X7 [1] (P2X7, Table 2, 10 μM compound) was -4.1%. In addition, at P2X7 [1] (10 μM compound), the “PBMC 10 μM (% control)” value was −4.1 % control.
In the case of `Cc1nc2c(c(-c3ccn[nH]3)n1)C[C@H](C)N(C(=O)c1ccc(Cl)c(F)c1Cl)C2` [Example 72, (S)-(2,4-dichloro-3-fluorophenyl)(2,6-dimethyl-4-(1H-pyrazol-5-yl)-5,6-dihydropyrido[3,4-d]pyrimidin-7(8H)-yl)methanone], the remaining activity at 10 µM at P2X7 [1] (P2X7, Table 2, 10 μM compound) is -2.6%. The “PBMC 10 μM (% control)” value at P2X7 [1] (10 μM compound) is −2.6 % control.
As to `Cc1nc2c(c(-c3ccn[nH]3)n1)CC(C)N(C(=O)c1cccc(OC(F)(F)F)c1F)C2` (stereo not drawn) [Example 139, (2,6-dimethyl-4-(1H-pyrazol-5-yl)-5,6-dihydropyrido[3,4-d]pyrimidin-7(8H)-yl)(2-fluoro-3-(trifluoromethoxy)phenyl)methanone], the IC50 in test [2] worked out at 1.46 µM. For the same compound, the remaining activity at 10 µM at P2X7 [1] (setting [4]) was determined as 2%.
On to `Cc1nc2c(c(-c3ccn[nH]3)n1)CC(C)N(C(=O)c1cccc(OC(F)(F)F)c1)C2` (stereo not drawn) [Example 140, (2,6-dimethyl-4-(1H-pyrazol-5-yl)-5,6-dihydropyrido[3,4-d]pyrimidin-7(8H)-yl)(3-(trifluoromethoxy)phenyl)methanone], for which the results for the IC50 (in test [2]; at P2X7 [3]) were 47.3 µM and more than 10 µM, respectively. Further, on P2X7 [1] (setting [4]), the remaining activity at 10 µM is 52.5%.
Consider `Cc1nc2c(c(-c3ccn[nH]3)n1)CC(C)N(C(=O)c1cccc(F)c1Cl)C2` (stereo not drawn) [Example 143, (2-chloro-3-fluorophenyl)(2,6-dimethyl-4-(1H-pyrazol-5-yl)-5,6-dihydropyrido[3,4-d]pyrimidin-7(8H)-yl)methanone], for which, in test [2], the IC50 was 0.0522 µM. The remaining activity at 10 µM at P2X7 [1] (setting [4]) was 11.9%.
Take `COc1cncc(C(=O)N2Cc3nc(C)nc(-c4ccn[nH]4)c3CC2C)c1` (stereo not drawn) [Example 147, (2,6-dimethyl-4-(1H-pyrazol-5-yl)-5,6-dihydropyrido[3,4-d]pyrimidin-7(8H)-yl)(5-methoxypyridin-3-yl)methanone]: at P2X7 [1] (setting [4]), the remaining activity at 10 µM stood at 110%.
